Experimental data reported in patent publication US7807663B2, “Therapeutic agents for diabetes” (Ajinomoto Co., Inc., priority 2003, dated 2010).

Assays:
C57BL/KsJ-db/bdJcl mice [1] = assay: Combinational effect with insulin using db/db mice (Examples 7 and 8); format: in vivo; conditions: combined with insulin 0.2 U/kg, compared with alone groups, same experiment as Example 3
Procedure: The compound (III) (30 mg/kg) was orally administered to C57BL/KsJ-db/bdJcl mice (10 week age, male) and soon after that, metformin (100 mg/kg) was orally administered. 60 minutes after administration, the blood was taken from their caudal veins to determine the blood glucose level. The same experiment is conducted as that of Example 3 except that insulin (0.2 U/kg) is used instead of metformin. […] The same experiment is conducted as that of Example 7 except that the compounds of the Compound Nos. 6, 8, 62, 80, 81, 88, 91, 96, 105, 106, 129, 130, 131 and 132 in Tables 1 and 2 are used instead of the compound (III).

adipose cells of rats = assay: Evaluation of the sugar transportation activity (2-[14C(U)]-deoxy-D-glucose incorporation); format: cell-based, Wistar rats; conditions: concentration with reinforcing effect of 50% of that of insulin (100 nM) = 100%; rat adipose cells, 30 min pre-culture at 37° C., 5 min uptake
Procedure: 1. Preparation of Adipose Cells of Rats:
After the decapitation and venesection of 6 male Wistar rats (body weight: 150 to 200 g), an incision was made in the abdomen of each rat to extract 6 g in total of epididymal adipose tissues. The tissues were finely cut into 2 mm×2 mm pieces in 6 ml of KRH (Krebs-Ringer Hepes, composition: 130 mM of sodium chloride, 4.7 mM of potassium chloride, 1.2 mM of potassium dihydrogenphosphate, 1.2 mM of magnesium sulfate, 1 mM of calcium chloride and 25 mM of Hepes, pH=7.6) containing 5% of BSA (bovine serum albumin). 24 mg of collagenase (type I) was added thereto and the digestion treatment was conducted for about 40 minutes to obtain about 6 ml of isolated adipose cells. The collagenase was removed by the buffer exchange. 2% BSA/KRH solution was added to the residue for the re-suspension to obtain 45 ml of an adipose cell suspension.
2. Evaluation of the Sugar Transportation Activity:
The sugar transportation activity of the compound (I) of the present invention was evaluated with reference to a method described in a literature [Annual Review of Biochemistry, Vol. 55, p. 1059 (1986)]. In the test, 200 μL of the adipose cell suspension was poured in each polystyrene test tube, 100 μL of the solution of the test substance (by dilution of 10 mg/mL dimethyl sulfoxide solution with KRH) was added thereto, and the obtained mixture was shaken and then cultured at 37° C. for 30 minutes. The sugar transportation activity was evaluated by measuring the quantity of 2-[^14C(U)]-deoxy-D-glucose incorporated per a unit time. Namely, 2-[^14C(U)]-deoxy-D-glucose was added to the adipose cell suspension after the pre-culture (the final concentration: 0.5 μCi/sample). 5 minutes after, cytochalasin B (final concentration: 10 μM) was added to the mixture to terminate the sugar transportation. After forming a dinonyl phthalate layer, the obtained mixture was centrifuged to separate the adipose cells from the buffer. The quantity of 2-[^14C(U)]-deoxy-D-glucose contained in the adipose cell layer was determined with a liquid scintillation counter to determine the quantity of the incorporated sugar. In this evaluation system, when insulin (100 nM) having the effect of reinforcing the sugar transportation was used, the effect was about 7 times as high as that obtained in the insulin-free control group.
The results of the evaluation of the sugar transportation activity obtained by using 100 μg/mL of the compound (I) of the present invention are shown in Table 3. The sugar transportation activity in Table 3 was evaluated on the basis of the reinforcing effect of insulin (100 nM). The sugar transportation activity A in Table 3 was determined in terms of the concentration (EC50: μg/mL) of a test compound, having a reinforcing effect corresponding to 50% on the basis of the reinforcing effect of insulin (100 nM) having a reinforcing effect of 100%.
The symbols in Table 3 are as follows: • No: Compound No. in Tables 1 and 2, and • A: sugar transportation activity.

KK-Ay mice = assay: Combinational effect with biguanide (metformin) using KK-Ay mice (Example 4); format: in vivo; conditions: combined with metformin, compared with alone groups, same experiment as Example 3
Procedure: The compound (III) (30 mg/kg) was orally administered to C57BL/KsJ-db/bdJcl mice (10 week age, male) and soon after that, metformin (100 mg/kg) was orally administered. 60 minutes after administration, the blood was taken from their caudal veins to determine the blood glucose level.
The same experiment is conducted as that of Example 3 except that the compounds of the Compound Nos. 6, 8, 62, 80, 81, 88, 91, 96, 105, 106, 129, 130, 131 and 132 in Tables 1 and 2 are used instead of the compound (III), and KK-Ay mice are used instead of db/bd mice.

C57BL/KsJ-db/bdJcl mice [2] = assay: Combinational effect with glitazone (pioglitazone) using db/db mice, oral glucose load (Examples 5 and 6); format: in vivo; conditions: single oral administration combined with pioglitazone 10 mg/kg/day oral for 10 days, compared with alone groups
Procedure: The oral glucose load experiments are conducted using C57BL/KsJ-db/bdJcl mice in the conditions with or without the oral administeration of pioglitazone (10 mg/kg/day) for 10 days and with or without a single oral administration of the compound (III).
The same experiment is conducted as that of Example 5 except that the compounds of the Compound Nos. 6, 8, 62, 80, 81, 88, 91, 96, 105, 106, 129, 130, 131 and 132 in Tables 1 and 2 are used instead of the compound (III).

GK rats = assay: Combinational effect with insulin secretagogue (gliclazide) using GK rats (Example 2); format: in vivo; conditions: combined with gliclazide, compared with alone groups, same experiment as Example 1
Procedure: The compound (II) (100 mg/kg) was orally administered to C57BL/6NCrj mice (11 week age, male) and soon after that, gliclazide (3 mg/kg) was orally administered. After administration, the blood was taken from their caudal veins over time to determine the blood glucose level. Area under the curve of blood glucose level changes until 70 minutes after the administration was set as an index and variations from a control group (Vehicle administered group) were compared.
The same experiment is conducted as that of Example 1 except that the compounds of the Compound Nos. 6, 8, 62, 80, 81, 88, 91, […], 105, 106, 129, 130, 131 and 132 in Tables 1 and 2 are used instead of the compound (II), and GK rats are used instead of normal mice.

A: sugar transportation activity (EC50) (adipose cells of rats)	Compound	hypoglycemic action (blood glucose level) (C57BL/KsJ-db/bdJcl mice [1])	hypoglycemic action (blood glucose level) (KK-Ay mice)	hypoglycemic action (oral glucose load) (C57BL/KsJ-db/bdJcl mice [2])	hypoglycemic action (blood glucose level) (GK rats)
0.47 µg/mL	COc1ccccc1[C@@H]1C2=C(CNC2=O)N[C@@H]2CCCC[C@H]2N1C(=O)CC(F)(F)F [Compound 6]	remarkable hypoglycemic action	remarkable hypoglycemic action	remarkable hypoglycemic action	remarkable hypoglycemic action
2 µg/mL	COc1ccccc1[C@@H]1C2=C(CNC2=O)N[C@@H]2CCCC[C@H]2N1C(=O)CO [Compound 8]	remarkable hypoglycemic action	remarkable hypoglycemic action	remarkable hypoglycemic action	remarkable hypoglycemic action
0.5 µg/mL	O=C1NCC2=C1[C@@H](c1ccccc1OC1CC1)N(C(=O)CO)[C@@H]1CCCC[C@H]1N2 [Compound 62]	remarkable hypoglycemic action	remarkable hypoglycemic action	remarkable hypoglycemic action	remarkable hypoglycemic action
5 µg/mL	CSc1ccccc1[C@@H]1C2=C(CNC2=O)N[C@@H]2CCCC[C@H]2N1C(C)=O [Compound 80]	remarkable hypoglycemic action	remarkable hypoglycemic action	remarkable hypoglycemic action	remarkable hypoglycemic action
2 µg/mL	CSc1ccccc1[C@@H]1C2=C(CNC2=O)N[C@@H]2CCCC[C@H]2N1C(=O)CO [Compound 81]	remarkable hypoglycemic action	remarkable hypoglycemic action	remarkable hypoglycemic action	remarkable hypoglycemic action
5 µg/mL	CC(=O)N1[C@@H]2CCCC[C@H]2NC2=C(C(=O)NC2)[C@H]1c1ccccc1C [Compound 88]	remarkable hypoglycemic action	remarkable hypoglycemic action	remarkable hypoglycemic action	remarkable hypoglycemic action
0.45 µg/mL	CCC(=O)N1[C@@H]2CCCC[C@H]2N(C)C2=C(C(=O)NC2)[C@H]1c1ccccc1C [Compound 91]	remarkable hypoglycemic action	remarkable hypoglycemic action	remarkable hypoglycemic action	remarkable hypoglycemic action
0.5 µg/mL	CC(=O)N1[C@@H]2CCCC[C@H]2NC2=C(C(=O)NC2)[C@H]1c1ccccc1C1CC1 [Compound 105]	remarkable hypoglycemic action	remarkable hypoglycemic action	remarkable hypoglycemic action	remarkable hypoglycemic action
0.6 µg/mL	CCC(=O)N1[C@@H]2CCCC[C@H]2NC2=C(C(=O)NC2)[C@H]1c1cccc(F)c1C [Compound 106]	remarkable hypoglycemic action	remarkable hypoglycemic action	remarkable hypoglycemic action	remarkable hypoglycemic action
–	CC(=O)N1[C@@H]2CCCC[C@H]2NC2=C(C(=O)NC2)[C@H]1c1ccccc1 [Compound 129]	remarkable hypoglycemic action	remarkable hypoglycemic action	remarkable hypoglycemic action	remarkable hypoglycemic action
1.5 µg/mL	CCC(=O)N1[C@@H]2CCCC[C@H]2NC2=C(C(=O)NC2)[C@H]1c1ccccc1 [Compound 130]	remarkable hypoglycemic action	remarkable hypoglycemic action	remarkable hypoglycemic action	remarkable hypoglycemic action
1.5 µg/mL	O=C1NCC2=C1[C@@H](c1ccccc1)N(C(=O)CO)[C@@H]1CCCC[C@H]1N2 [Compound 131]	remarkable hypoglycemic action	remarkable hypoglycemic action	remarkable hypoglycemic action	remarkable hypoglycemic action
2.7 µg/mL	CCOCC(=O)N1[C@@H]2CCCC[C@H]2NC2=C(C(=O)NC2)[C@H]1c1ccccc1 [Compound 132]	remarkable hypoglycemic action	remarkable hypoglycemic action	remarkable hypoglycemic action	remarkable hypoglycemic action
